Experimental data published in patent US11198741B2, “Medicines for topic use based on sulfated hyaluronic acid as activating or inhibiting agent of the cytokine activity” (Fidia Farmaceutici S.p.A., priority 2009, dated 2021).

System: Herpes Simplex Virus-2 (HSV-2: G, 196 and Lyons strain)
Assay: Inhibition of viral cytopathogenicity in E6SM fibroblast cells, HSV-2
Type: cell-based
Conditions: 2nd day of incubation, numbers only in FIG. 10

## sulfated hyaluronic acid degree 3 [HAS3]
  antiviral activity (inhibition of the cytopathogenicity of the virus) vs HSV-2: powerful antiviral action
